Values belong to the molecule of their own block, whether it stands above or below them.
Columns and labels:
[1] = molecular target: T1, Asparagine synthetase [glutamine-hydrolyzing] (Rattus norvegicus) (UniProt P49088); experiment: Inhibition of asparagine synthetase from partially purified rat Novikoff hepatoma at a final concentration of 2 mM
T1 sequence (whole entry): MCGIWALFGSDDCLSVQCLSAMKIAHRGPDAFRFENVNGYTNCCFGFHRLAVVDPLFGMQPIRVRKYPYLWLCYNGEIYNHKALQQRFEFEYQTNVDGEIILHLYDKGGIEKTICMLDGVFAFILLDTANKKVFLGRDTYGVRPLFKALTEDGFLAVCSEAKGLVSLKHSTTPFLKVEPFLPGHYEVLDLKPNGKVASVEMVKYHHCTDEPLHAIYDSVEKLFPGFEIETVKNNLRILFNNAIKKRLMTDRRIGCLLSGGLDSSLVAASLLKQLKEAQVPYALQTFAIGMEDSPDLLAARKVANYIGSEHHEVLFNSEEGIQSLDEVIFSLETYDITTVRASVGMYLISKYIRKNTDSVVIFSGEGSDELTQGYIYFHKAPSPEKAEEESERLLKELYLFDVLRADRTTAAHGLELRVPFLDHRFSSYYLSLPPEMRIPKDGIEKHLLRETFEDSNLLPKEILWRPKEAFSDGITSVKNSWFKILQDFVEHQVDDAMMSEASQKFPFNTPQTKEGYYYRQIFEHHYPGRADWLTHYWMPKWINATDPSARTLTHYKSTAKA

TsH1 [2] = experiment: Compound was evaluated for the growth inhibition of TsH1 cells in an enriched eagles minimal essential medium, medium lacking aspartic acid and asparagine at a concentration of 0.04 mg/mL (0.13 mM); Heavy growth; format: functional, cell-based; details: Cricetulus griseus
TsH1 [3] = experiment: Compound was evaluated for the growth inhibition of TsH1 cells in an enriched eagles minimal essential medium, medium lacking aspartic acid at a concentration of 1.0 mg/mL (3.27 mM); Cells dead; format: functional, cell-based; details: Cricetulus griseus
TsH1 [4] = experiment: Compound was evaluated for the growth inhibition of TsH1 cells in an enriched eagles minimal essential medium, complete medium at a concentration of 0.01 mg/mL (0.03 mM); Heavy growth; format: functional, cell-based; details: Cricetulus griseus
TsH1 [5] = experiment: Compound was evaluated for the growth inhibition of TsH1 cells in an enriched eagles minimal essential medium, complete medium at a concentration of 0.04 mg/mL (0.13 mM); Heavy growth; format: functional, cell-based; details: Cricetulus griseus
TsH1 [6] = experiment: Compound was evaluated for the growth inhibition of TsH1 cells in an enriched eagles minimal essential medium, medium lacking asparagine at a concentration of 0.2 mg/mL (0.65 mM); Cells dead; format: functional, cell-based; details: Cricetulus griseus
TsH1 [7] = experiment: Compound was evaluated for the growth inhibition of TsH1 cells in an enriched eagles minimal essential medium, medium lacking aspartic acid at a concentration of 0.01 mg/mL (0.03 mM); Heavy growth; format: functional, cell-based; details: Cricetulus griseus
TsH1 [8] = experiment: Compound was evaluated for the growth inhibition of TsH1 cells in an enriched eagles minimal essential medium, complete medium at a concentration of 0.2 mg/mL (0.65 mM); Light growth; format: functional, cell-based; details: Cricetulus griseus
TsH1 [9] = experiment: Compound was evaluated for the growth inhibition of TsH1 cells in an enriched eagles minimal essential medium, medium lacking aspartic acid and asparagine at a concentration of 0.01 mg/mL (0.03 mM); Medium growth; format: functional, cell-based; details: Cricetulus griseus
TsH1 [10] = experiment: Compound was evaluated for the growth inhibition of TsH1 cells in an enriched eagles minimal essential medium, medium lacking asparagine at a concentration of 1.0 mg/mL (3.27 mM); Cells dead; format: functional, cell-based; details: Cricetulus griseus
TsH1 [11] = experiment: Compound was evaluated for the growth inhibition of TsH1 cells in an enriched eagles minimal essential medium, complete medium at a concentration of 1.0 mg/mL (3.27 mM); Cells dead; format: functional, cell-based; details: Cricetulus griseus
[12] = molecular target: T1, Asparagine synthetase [glutamine-hydrolyzing] (Rattus norvegicus); experiment: Inhibition of asparagine synthetase from partially purified rat Novikoff hepatoma at a final concentration of 1 mM
TsH1 [13] = experiment: Compound was evaluated for the growth inhibition of TsH1 cells in an enriched eagles minimal essential medium, medium lacking aspartic acid at a concentration of 0.2 mg/mL (0.65 mM); Light growth; format: functional, cell-based; details: Cricetulus griseus
TsH1 [14] = experiment: Compound was evaluated for the growth inhibition of TsH1 cells in an enriched eagles minimal essential medium, medium lacking aspartic acid and asparagine at a concentration of 0.2 mg/mL (0.65 mM); Cells dead; format: functional, cell-based; details: Cricetulus griseus
TsH1 [15] = experiment: Compound was evaluated for the growth inhibition of TsH1 cells in an enriched eagles minimal essential medium, medium lacking asparagine at a concentration of 0.01 mg/mL (0.03 mM); Heavy growth; format: functional, cell-based; details: Cricetulus griseus
TsH1 [16] = experiment: Compound was evaluated for the growth inhibition of TsH1 cells in an enriched eagles minimal essential medium, medium lacking aspartic acid and asparagine at a concentration of 1.0 mg/mL (3.27 mM); Cells dead; format: functional, cell-based; details: Cricetulus griseus
TsH1 [17] = experiment: Compound was evaluated for the growth inhibition of TsH1 cells in an enriched eagles minimal essential medium, medium lacking asparagine at a concentration of 0.04 mg/mL (0.13 mM); Heavy growth; format: functional, cell-based; details: Cricetulus griseus
TsH1 [18] = experiment: Compound was evaluated for the growth inhibition of TsH1 cells in an enriched eagles minimal essential medium, medium lacking aspartic acid at a concentration of 0.04 mg/mL (0.13 mM); Heavy growth; format: functional, cell-based; details: Cricetulus griseus
TsH1 [19] = experiment: Compound was evaluated for the growth inhibition of TsH1 cells in an enriched eagles minimal essential medium, medium lacking aspartic acid and asparagine at a concentration of 1.0 mg/mL (4.34 mM); Heavy growth; format: functional, cell-based; details: Cricetulus griseus
TsH1 [20] = experiment: Compound was evaluated for the growth inhibition of TsH1 cells in an enriched eagles minimal essential medium, medium lacking aspartic acid and asparagine at a concentration of 0.01 mg/mL (0.01 mM); Heavy growth; format: functional, cell-based; details: Cricetulus griseus
TsH1 [21] = experiment: Compound was evaluated for the growth inhibition of TsH1 cells in an enriched eagles minimal essential medium, medium lacking asparagine at a concentration of 0.01 mg/mL (0.01 mM); Heavy growth; format: functional, cell-based; details: Cricetulus griseus
TsH1 [22] = experiment: Compound was evaluated for the growth inhibition of TsH1 cells in an enriched eagles minimal essential medium, complete medium at a concentration of 1.0 mg/mL (4.34 mM); Heavy growth; format: functional, cell-based; details: Cricetulus griseus
TsH1 [23] = experiment: Compound was evaluated for the growth inhibition of TsH1 cells in an enriched eagles minimal essential medium, cmedium lacking aspartic acid at a concentration of 0.04 mg/mL (0.17 mM); Heavy growth; format: functional, cell-based; details: Cricetulus griseus
TsH1 [24] = experiment: Compound was evaluated for the growth inhibition of TsH1 cells in an enriched eagles minimal essential medium, medium lacking aspartic acid and asparagine at a concentration of 0.2 mg/mL (0.87 mM); Heavy growth; format: functional, cell-based; details: Cricetulus griseus
TsH1 [25] = experiment: Compound was evaluated for the growth inhibition of TsH1 cells in an enriched eagles minimal essential medium, complete medium at a concentration of 0.04 mg/mL (0.17 mM); Heavy growth; format: functional, cell-based; details: Cricetulus griseus
TsH1 [26] = experiment: Compound was evaluated for the growth inhibition of TsH1 cells in an enriched eagles minimal essential medium, medium lacking aspartic acid at a concentration of 1.0 mg/mL (4.34 mM); Heavy growth; format: functional, cell-based; details: Cricetulus griseus
TsH1 [27] = experiment: Compound was evaluated for the growth inhibition of TsH1 cells in an enriched eagles minimal essential medium, medium lacking asparagine at a concentration of 0.04 mg/mL (0.17 mM); Heavy growth; format: functional, cell-based; details: Cricetulus griseus
TsH1 [28] = experiment: Compound was evaluated for the growth inhibition of TsH1 cells in an enriched eagles minimal essential medium, medium lacking aspartic acid and asparagine at a concentration of 0.04 mg/mL (0.17 mM); Heavy growth; format: functional, cell-based; details: Cricetulus griseus
TsH1 [29] = experiment: Compound was evaluated for the growth inhibition of TsH1 cells in an enriched eagles minimal essential medium, complete medium at a concentration of 0.2 mg/mL (0.87 mM); Heavy growth; format: functional, cell-based; details: Cricetulus griseus
TsH1 [30] = experiment: Compound was evaluated for the growth inhibition of TsH1 cells in an enriched eagles minimal essential medium, medium lacking asparagine at a concentration of 1.0 mg/mL (4.34 mM); Heavy growth; format: functional, cell-based; details: Cricetulus griseus
TsH1 [31] = experiment: Compound was evaluated for the growth inhibition of TsH1 cells in an enriched eagles minimal essential medium, medium lacking asparagine at a concentration of 0.2 mg/mL (0.87 mM); Heavy growth; format: functional, cell-based; details: Cricetulus griseus
TsH1 [32] = experiment: Compound was evaluated for the growth inhibition of TsH1 cells in an enriched eagles minimal essential medium, medium lacking aspartic acid at a concentration of 0.01 mg/mL (0.01 mM); Heavy growth; format: functional, cell-based; details: Cricetulus griseus
TsH1 [33] = experiment: Compound was evaluated for the growth inhibition of TsH1 cells in an enriched eagles minimal essential medium, complete medium at a concentration of 0.01 mg/mL (0.01 mM); Heavy growth; format: functional, cell-based; details: Cricetulus griseus
TsH1 [34] = experiment: Compound was evaluated for the growth inhibition of TsH1 cells in an enriched […] at a concentration of 0.2 mg/mL (0.87 mM); Heavy growth; format: functional, cell-based; details: Cricetulus griseus

inhibition [1]: 0%
SMILES: NCC(N)C(=O)O (stereo not given)

SMILES: NC(CNC(=O)CBr)C(=O)O (stereo not given)
Growth inhibition (TsH1 [2]): Heavy Growth
Growth inhibition (TsH1 [3]): Not toxic
Growth inhibition (TsH1 [4]): Heavy Growth
Growth inhibition (TsH1 [5]): Heavy Growth
Growth inhibition (TsH1 [6]): Not toxic
Growth inhibition (TsH1 [7]): Heavy Growth
Growth inhibition (TsH1 [8]): Light growth
Growth inhibition (TsH1 [9]): Medium Growth
Growth inhibition (TsH1 [10]): Not toxic
Growth inhibition (TsH1 [11]): Not toxic
inhibition [12]: 93%
Growth inhibition (TsH1 [13]): Light growth
Growth inhibition (TsH1 [14]): Not toxic
Growth inhibition (TsH1 [15]): Heavy Growth
Growth inhibition (TsH1 [16]): Not toxic
Growth inhibition (TsH1 [17]): Heavy Growth
Growth inhibition (TsH1 [18]): Heavy Growth

inhibition [12]: 37.4%
SMILES: CCOC(=O)/C=C/C(=O)NCC(N)C(=O)O (stereo not given)
Growth inhibition (TsH1 [19]): Heavy Growth
Growth inhibition (TsH1 [20]): Heavy Growth
Growth inhibition (TsH1 [21]): Heavy Growth
Growth inhibition (TsH1 [22]): Heavy Growth
Growth inhibition (TsH1 [23]): Heavy Growth
Growth inhibition (TsH1 [24]): Heavy Growth
Growth inhibition (TsH1 [25]): Heavy Growth
Growth inhibition (TsH1 [26]): Heavy Growth
Growth inhibition (TsH1 [27]): Heavy Growth
Growth inhibition (TsH1 [28]): Heavy Growth
Growth inhibition (TsH1 [29]): Heavy Growth
Growth inhibition (TsH1 [30]): Heavy Growth
Growth inhibition (TsH1 [31]): Heavy Growth
Growth inhibition (TsH1 [32]): Heavy Growth
Growth inhibition (TsH1 [33]): Heavy Growth
Growth inhibition (TsH1 [34]): Heavy Growth

Reference: ChEMBL document CHEMBL1121869, “Potential inhibitors of L-asparagine biosynthesis. 5. Electrophilic amide analogues of (S)-2,3-diaminopropionic acid” (J Med Chem, 1981)
